The text below walks through data of patent publication US9090628B2, “Benzoxazepin compounds selective for PI3K P110 delta and methods of use” (GENENTECH, INC., priority 2011, dated 2015).

The target of one assay is p110 delta (Homo sapiens (Human), UniProt O00329). The experiment in a line: PI3K isoform inhibition assay, p110 delta (fluorescence polarization displacement). The format is biochemical. As to the method:
(§1) PI3K enzymatic activity was assayed by measuring the amount of product phosphatidylinositol 3,4,5-phosphate (PIP3) formed from substrate 4,5 phosphatidylinositol 4,5-phosphate (PIP2) using a fluorescence polarization displacement assay. The decrease in fluorescence polarization of a fluorescent PIP3 probe is measured as it is displaced from a PIP3-binding protein GRP-1 detector by PI3K-catalyzed product. […] The kinase reactions were initiated by the addition of 40 ng/mL p110α/p85α, 300 ng/mL p110β/p85α, 40 ng/mL p110γ, or 40 ng/mL p110δ/p85α (Upstate Group, Millipore; Dundee, UK), and 10 μM PIP2 (Echelon Biosciences) to the wells. […] After 60 minutes of incubation at room temperature to allow equilibration of labeled and unlabeled PIP3 binding, the parallel and perpendicular components of the fluorescence emissions from each sample were measured at an excitation wavelength of 530 nm and an emission wavelength of 590 nm using an Envision fluorescent plate reader with a rhodamine filter (PerkinElmer Life and Analytical Sciences; Wellesley, Mass.). The assay is capable of detecting 0.1-2.0 μM PIP3 product. The IC50 values were obtained by fitting the dose-dependent inhibition data to a 4-parameter equation using Assay Explorer software (MDL, San Ramon, Calif.).
The Formula I compound was serially diluted in 100% DMSO. The kinase reaction was incubated for 1 h at room temperature, and the reaction was terminated by the addition of PBS. IC50 values were subsequently determined using sigmoidal dose-response curve fit (variable slope).
(§2) The four Class I PI 3-kinases are cloned into baculovirus vectors as follows: […]
Background: Fluorescence polarisation rises when a labelled molecule tumbles more slowly, as on binding a larger partner.

The target in the next assay is p110 alpha (Homo sapiens (Human), UniProt P42336). The experiment in a line: PI3K isoform inhibition assay, p110 alpha (for alpha/delta selectivity). To be noted: ratio of biochemical IC50 values. The method, then: as §1
The same protocol may be used to establish IC50 values for p110α (alpha) PI3K binding.
as §2

Chain of p110 alpha (P42336 whole entry, canonical isoform): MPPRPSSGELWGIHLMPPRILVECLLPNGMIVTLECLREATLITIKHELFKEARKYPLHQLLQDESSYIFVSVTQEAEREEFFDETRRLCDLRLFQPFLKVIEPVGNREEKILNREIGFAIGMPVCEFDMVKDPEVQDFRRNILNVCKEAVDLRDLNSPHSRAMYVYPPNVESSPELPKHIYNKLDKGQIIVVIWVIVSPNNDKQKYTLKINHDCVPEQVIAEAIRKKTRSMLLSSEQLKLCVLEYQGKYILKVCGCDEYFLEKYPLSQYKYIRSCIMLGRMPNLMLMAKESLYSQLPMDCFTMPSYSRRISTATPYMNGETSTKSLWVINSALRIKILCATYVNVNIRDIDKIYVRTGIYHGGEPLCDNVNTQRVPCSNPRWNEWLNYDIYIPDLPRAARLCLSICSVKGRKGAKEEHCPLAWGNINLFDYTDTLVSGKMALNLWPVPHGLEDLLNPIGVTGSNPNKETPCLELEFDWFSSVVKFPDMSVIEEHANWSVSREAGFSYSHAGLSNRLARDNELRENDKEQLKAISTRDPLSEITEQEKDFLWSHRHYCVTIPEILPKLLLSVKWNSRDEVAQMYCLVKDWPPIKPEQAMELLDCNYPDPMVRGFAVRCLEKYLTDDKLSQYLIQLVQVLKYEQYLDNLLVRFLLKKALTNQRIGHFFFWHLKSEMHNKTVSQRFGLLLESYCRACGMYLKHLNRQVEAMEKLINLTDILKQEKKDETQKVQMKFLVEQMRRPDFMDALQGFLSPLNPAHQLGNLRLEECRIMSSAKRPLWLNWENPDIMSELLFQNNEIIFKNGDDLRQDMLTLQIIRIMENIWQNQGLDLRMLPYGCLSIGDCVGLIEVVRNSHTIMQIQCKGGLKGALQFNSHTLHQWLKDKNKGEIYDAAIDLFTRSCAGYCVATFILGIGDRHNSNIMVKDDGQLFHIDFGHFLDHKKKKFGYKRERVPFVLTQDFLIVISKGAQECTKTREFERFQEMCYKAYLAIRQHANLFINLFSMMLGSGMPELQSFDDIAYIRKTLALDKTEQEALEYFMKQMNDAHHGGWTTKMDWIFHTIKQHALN
Chain of p110 alpha (P27986 whole entry partner, canonical isoform): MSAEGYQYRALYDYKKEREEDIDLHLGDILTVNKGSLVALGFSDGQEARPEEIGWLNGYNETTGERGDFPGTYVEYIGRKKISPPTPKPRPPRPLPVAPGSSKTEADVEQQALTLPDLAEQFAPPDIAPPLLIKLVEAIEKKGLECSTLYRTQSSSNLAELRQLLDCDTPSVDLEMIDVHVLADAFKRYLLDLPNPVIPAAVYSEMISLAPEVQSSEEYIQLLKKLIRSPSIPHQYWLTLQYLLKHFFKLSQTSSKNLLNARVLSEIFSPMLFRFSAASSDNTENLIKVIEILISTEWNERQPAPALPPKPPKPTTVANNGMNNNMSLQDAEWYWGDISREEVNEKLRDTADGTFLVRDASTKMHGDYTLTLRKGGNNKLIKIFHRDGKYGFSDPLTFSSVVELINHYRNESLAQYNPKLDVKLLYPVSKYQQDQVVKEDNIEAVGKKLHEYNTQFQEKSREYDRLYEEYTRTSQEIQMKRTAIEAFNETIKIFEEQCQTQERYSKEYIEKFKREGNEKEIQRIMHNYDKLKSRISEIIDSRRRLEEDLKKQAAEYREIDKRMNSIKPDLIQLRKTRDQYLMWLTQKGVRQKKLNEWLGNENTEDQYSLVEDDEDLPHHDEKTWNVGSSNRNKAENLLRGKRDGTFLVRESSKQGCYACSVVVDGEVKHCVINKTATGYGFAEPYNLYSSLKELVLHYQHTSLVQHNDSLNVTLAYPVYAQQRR
Chain of p110 delta (O00329 whole entry, canonical isoform): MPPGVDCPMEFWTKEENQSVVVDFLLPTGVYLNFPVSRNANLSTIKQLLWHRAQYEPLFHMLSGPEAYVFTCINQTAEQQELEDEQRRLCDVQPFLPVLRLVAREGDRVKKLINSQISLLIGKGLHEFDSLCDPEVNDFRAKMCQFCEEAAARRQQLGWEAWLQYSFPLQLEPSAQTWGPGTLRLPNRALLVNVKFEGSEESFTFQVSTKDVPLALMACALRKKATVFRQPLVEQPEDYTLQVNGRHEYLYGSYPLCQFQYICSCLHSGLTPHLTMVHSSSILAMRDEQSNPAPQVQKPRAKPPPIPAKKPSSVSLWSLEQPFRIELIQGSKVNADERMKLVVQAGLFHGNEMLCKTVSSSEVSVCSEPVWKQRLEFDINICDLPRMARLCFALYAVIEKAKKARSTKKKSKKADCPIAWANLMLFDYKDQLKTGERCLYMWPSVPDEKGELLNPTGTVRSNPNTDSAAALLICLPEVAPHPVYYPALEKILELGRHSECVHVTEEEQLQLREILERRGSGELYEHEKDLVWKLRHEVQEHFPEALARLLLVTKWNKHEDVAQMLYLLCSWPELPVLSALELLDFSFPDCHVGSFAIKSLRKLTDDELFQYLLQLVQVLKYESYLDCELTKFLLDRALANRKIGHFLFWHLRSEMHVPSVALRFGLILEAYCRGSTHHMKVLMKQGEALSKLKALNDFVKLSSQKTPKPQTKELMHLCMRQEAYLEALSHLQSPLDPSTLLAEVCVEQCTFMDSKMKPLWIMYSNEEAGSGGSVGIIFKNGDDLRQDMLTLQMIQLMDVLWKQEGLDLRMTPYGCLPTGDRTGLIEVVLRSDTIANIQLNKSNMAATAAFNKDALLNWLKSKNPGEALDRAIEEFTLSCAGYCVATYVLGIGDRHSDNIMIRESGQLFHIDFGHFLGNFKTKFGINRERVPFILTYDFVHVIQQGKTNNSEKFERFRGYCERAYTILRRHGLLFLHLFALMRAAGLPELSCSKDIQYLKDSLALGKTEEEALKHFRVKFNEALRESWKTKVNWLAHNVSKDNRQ
Chain of p110 delta (P27986 whole entry partner, canonical isoform): as the sequence (P27986 whole entry partner, canonical isoform) above

As for `Cc1nc(-c2cn3c(n2)-c2ccc(N4CCCC45CCCN(C)C5)cc2OCC3)n(C(C)C)n1` (centres unmarked) [Example 318, 2-(2-isopropyl-5-methyl-1,2,4-triazol-3-yl)-9-(7-methyl-1,7-diazaspiro[4.5]decan-1-yl)-5,6-dihydroimidazo[1,2-d][1,4]benzoxazepine], the IC50 (in general, the concentration that inhibits the measured activity by half) at p110 delta turned out to be 0.178 nM. Further, the “IC50 p110 alpha/IC50 p110 delta” value at p110 alpha came out at 29.4.
On p110 delta, `Cc1nc(-c2cn3c(n2)-c2ccc(N4CCCC4C4CCCN(C)C4)cc2OCC3)n(C(C)C)n1` (centres unmarked) [Example 319, 2-(2-isopropyl-5-methyl-1,2,4-triazol-3-yl)-9-[2-(1-methyl-3-piperidyl)pyrrolidin-1-yl]-5,6-dihydroimidazo[1,2-d][1,4]benzoxazepine] returned an IC50 of 2.81 nM. On p110 alpha, the “IC50 p110 alpha/IC50 p110 delta” value came to 26.3.
The molecule `Cc1nc(-c2cn3c(n2)-c2ccc(N4CCCC45CCCN(C)C5)cc2OCC3)n(C(C)C)n1` (centres unmarked) [Example 320, 2-(2-isopropyl-5-methyl-1,2,4-triazol-3-yl)-9-(7-methyl-1,7-diazaspiro[4.5]decan-1-yl)-5,6-dihydroimidazo[1,2-d][1,4]benzoxazepine] displayed an IC50 on p110 delta of 0.236 nM. Also, the “IC50 p110 alpha/IC50 p110 delta” value at p110 alpha is 54.6.
For the molecule `Cc1nc(-c2cn3c(n2)-c2ccc(N4CCCC4C4CCCN(C)C4)cc2OCC3)n(C(C)C)n1` (centres unmarked) [Example 321, 2-(2-isopropyl-5-methyl-1,2,4-triazol-3-yl)-9-[2-(1-methyl-3-piperidyl)pyrrolidin-1-yl]-5,6-dihydroimidazo[1,2-d][1,4]benzoxazepine], at p110 delta, the half-inhibitory concentration (IC50) amounted to 2.52 nM. For the same molecule, the “IC50 p110 alpha/IC50 p110 delta” value at p110 alpha was found to be 22.1.
Take `Cc1nc(-c2cn3c(n2)-c2ccc(N4CCCC4C4CCCN(C)C4)cc2OCC3)n(C(C)C)n1` (centres unmarked) [Example 322, 2-(2-isopropyl-5-methyl-1,2,4-triazol-3-yl)-9-[2-(1-methyl-3-piperidyl)pyrrolidin-1-yl]-5,6-dihydroimidazo[1,2-d][1,4]benzoxazepine]: the IC50 at p110 delta was determined as 5.68 nM. In addition, the “IC50 p110 alpha/IC50 p110 delta” value at p110 alpha was determined as 31.9.
In turn, `Cc1nc(-c2cn3c(n2)-c2ccc(N4CCCC4C4CCCCN4C)cc2OCC3)n(C(C)C)n1` (centres unmarked) [Example 323, 2-(2-isopropyl-5-methyl-1,2,4-triazol-3-yl)-9-[2-(1-methyl-2-piperidyl)pyrrolidin-1-yl]-5,6-dihydroimidazo[1,2-d][1,4]benzoxazepine] yielded an IC50 at p110 delta of 1.94 nM. Further, the “IC50 p110 alpha/IC50 p110 delta” value on p110 alpha was found to be 11.7.
Take `Cc1nc(-c2cn3c(n2)-c2ccc(N4CCCC4C4CCCCN4C)cc2OCC3)n(C(C)C)n1` (centres unmarked) [Example 324, 2-(2-isopropyl-5-methyl-1,2,4-triazol-3-yl)-9-[2-(1-methyl-2-piperidyl)pyrrolidin-1-yl]-5,6-dihydroimidazo[1,2-d][1,4]benzoxazepine]: the IC50 at p110 delta came to 139 nM. Further, at p110 alpha, the “IC50 p110 alpha/IC50 p110 delta” value stood at 15.
Regarding `Cc1nc(-c2cn3c(n2)-c2ccc(N4CCC[C@H]4CN4CCCC4)cc2OCC3)n(C(C)C)n1` [Example 325, (S)-2-(1-isopropyl-3-methyl-1H-1,2,4-triazol-5-yl)-9-(2-(pyrrolidin-1-ylmethyl)pyrrolidin-1-yl)-5,6-dihydrobenzo[f]imidazo[1,2-d][1,4]oxazepine], on p110 delta, the half-inhibitory concentration (IC50) came to 0.313 nM. Also, on p110 alpha, the “IC50 p110 alpha/IC50 p110 delta” value came out at 20.2.
At p110 delta, `Cc1nc(-c2cn3c(n2)-c2ccc(N4CCC[C@@H]4CN4CCCC4)cc2OCC3)n(C(C)C)n1` [Example 326, (R)-2-(1-isopropyl-3-methyl-1H-1,2,4-triazol-5-yl)-9-(2-(pyrrolidin-1-ylmethyl)pyrrolidin-1-yl)-5,6-dihydrobenzo[f]imidazo[1,2-d][1,4]oxazepine] registered an IC50 of 0.416 nM. The “IC50 p110 alpha/IC50 p110 delta” value at p110 alpha was found to be 52.9.
In turn, `CC(C)n1nc(N)nc1-c1cn2c(n1)-c1ccc(-c3ccnn3C3CCN(C(C)(C)C)CC3)cc1OCC2` [Example 327, 5-[9-[2-(1-tert-butyl-4-piperidyl)pyrazol-3-yl]-5,6-dihydroimidazo[1,2-d][1,4]benzoxazepin-2-yl]-1-isopropyl-1,2,4-triazol-3-amine] registered a concentration for half-maximal inhibition (IC50) at p110 delta of 3.89 nM. Also, the “IC50 p110 alpha/IC50 p110 delta” value at p110 alpha was 20.8.
